Assay results: patent US11034650B2, “Compounds useful for treating a Mannheimia haemolytica or Histophilus somni infection” (Intervet Inc., priority 2016, dated 2021)
Values after ≈ are worked out from the molar mass of the structure shown.

Legend:
Type in all cases: cell-based
[1] = tested on: Mannheimia haemolytica MH 6357 (M7/2, reference strain, cattle infection strain); experiment: MIC, broth-microdilution (CLSI VET01-A4), strain MH 6357; conditions: Mannheimia haemolytica strain MH 6357, broth-microdilution; unit assumed
Outline: (§1)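 Visual endpoint: the first dilution of a doubling series lacking turbidity gives the MIC; CLSI VET01-S3 interpretive rules applied.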

[2] = tested on: Mannheimia haemolytica MH 6374 (ATCC 33396, reference strain); experiment: MIC, broth-microdilution (CLSI VET01-A4), strain MH 6374; conditions: Mannheimia haemolytica strain MH 6374, broth-microdilution; unit assumed
Outline: as §1

[3] = tested on: Mannheimia haemolytica MH 10720 (154, BRD field isolate); experiment: MIC, broth-microdilution (CLSI VET01-A4), strain MH 10720; conditions: Mannheimia haemolytica strain MH 10720, broth-microdilution; unit assumed
Outline: as §1

[4] = tested on: Mannheimia haemolytica MH 12587 (1071, BRD field isolate, macrolide-resistance: erm+, E+); experiment: MIC, broth-microdilution (CLSI VET01-A4), strain MH 12587; conditions: Mannheimia haemolytica strain MH 12587, broth-microdilution; unit assumed
Outline: as §1

[5] = tested on: Mannheimia haemolytica MH 13065 (XB0446-6003.9, BRD field isolate); experiment: MIC, broth-microdilution (CLSI VET01-A4), strain MH 13065; conditions: Mannheimia haemolytica strain MH 13065, broth-microdilution; unit assumed
Outline: as §1

[6] = tested on: Mannheimia haemolytica MH 13093 (XB0472-6014.1, BRD field isolate); experiment: MIC, broth-microdilution (CLSI VET01-A4), strain MH 13093; conditions: Mannheimia haemolytica strain MH 13093, broth-microdilution; unit assumed
Outline: as §1

[7] = tested on: Pasteurella multocida PM 6267 (P 2225 (L386), reference strain, mouse infection strain); experiment: MIC, broth-microdilution (CLSI VET01-A4), strain PM 6267; conditions: Pasteurella multocida strain PM 6267, broth-microdilution; unit assumed
Outline: as §1

[8] = tested on: Pasteurella multocida PM 6391 (ATCC 43137, reference strain); experiment: MIC, broth-microdilution (CLSI VET01-A4), strain PM 6391; conditions: Pasteurella multocida strain PM 6391, broth-microdilution; unit assumed
Outline: as §1

[9] = tested on: Pasteurella multocida PM 10775 (080130003051, BRD field isolate); experiment: MIC, broth-microdilution (CLSI VET01-A4), strain PM 10775; conditions: Pasteurella multocida strain PM 10775, broth-microdilution; unit assumed
Outline: as §1

[10] = tested on: Pasteurella multocida PM 12080 (IV102277-0093, BRD field isolate); experiment: MIC, broth-microdilution (CLSI VET01-A4), strain PM 12080; conditions: Pasteurella multocida strain PM 12080, broth-microdilution; unit assumed
Outline: as §1

MIC PM 6267 [7] [µg/mL] | MIC PM 6391 [8] [µg/mL] | MIC PM 10775 [9] [µg/mL] | MIC PM 12080 [10] [µg/mL] | SMILES | MIC MH 6357 [1] [µg/mL] | MIC MH 6374 [2] [µg/mL] | MIC MH 10720 [3] [µg/mL] | MIC MH 12587 [4] [µg/mL] | MIC MH 13065 [5] [µg/mL] | MIC MH 13093 [6] [µg/mL]
≤ 0.1 | 0.4 (≈ 0.949 µM) | ≤ 0.1 | 0.4 (≈ 0.949 µM) | C=CCNCc1ccc(C#Cc2ccc(C(=O)N[C@H](C(=O)NO)C(C)(C)O)cc2)cc1 [Compound 220] | 3.1 (≈ 7.35 µM) | 0.8 (≈ 1.9 µM) | ≤ 0.1 | 3.1 (≈ 7.35 µM) | 0.8 (≈ 1.9 µM) | 1.6 (≈ 3.8 µM)
≤ 0.1 | ≤ 0.1 | ≤ 0.1 | ≤ 0.1 | CC(C)([C@H](NC(=O)c1ccc(C#Cc2ccc(CN3CCOCC3)cc2)cc1)C(=O)NO)S(C)(=O)=O [Compound 258] | 1.6 (≈ 3.12 µM) | 1.6 (≈ 3.12 µM) | 0.2 (≈ 0.389 µM) | 1.6 (≈ 3.12 µM) | 0.8 (≈ 1.56 µM) | 1.6 (≈ 3.12 µM)
0.2 (≈ 0.376 µM) | 0.8 (≈ 1.5 µM) | 0.2 (≈ 0.376 µM) | 0.4 (≈ 0.752 µM) | COc1ccc(CNCc2ccc(C#Cc3ccc(C(=O)N[C@H](C(=O)NO)C(C)(C)SC)cc3)cc2)cc1 [Compound 240] | 1.6 (≈ 3.01 µM) | 1.6 (≈ 3.01 µM) | 0.4 (≈ 0.752 µM) | 1.6 (≈ 3.01 µM) | 1.6 (≈ 3.01 µM) | 1.6 (≈ 3.01 µM)
0.2 (≈ 0.402 µM) | 0.4 (≈ 0.804 µM) | ≤ 0.1 | 0.4 (≈ 0.804 µM) | CC[C@H](C)[C@H](NC(=O)c1ccc(C#Cc2ccc(CN3CCS(=O)(=O)CC3)cc2)cc1)C(=O)NO [Compound 142] | 6.3 (≈ 12.7 µM) | 12.5 (≈ 25.1 µM) | 3.1 (≈ 6.23 µM) | 25 (≈ 50.2 µM) | 12.5 (≈ 25.1 µM) | 12.5 (≈ 25.1 µM)
0.4 (≈ 0.865 µM) | 1.6 (≈ 3.46 µM) | ≤ 0.1 | 0.8 (≈ 1.73 µM) | CC[C@H](C)[C@H](NC(=O)c1ccc(C#Cc2ccc(CN3CCN(C)CC3)cc2)cc1)C(=O)NO [Compound 175] | 6.3 (≈ 13.6 µM) | 12.5 (≈ 27 µM) | 3.1 (≈ 6.7 µM) | 25 (≈ 54 µM) | 12.5 (≈ 27 µM) | 12.5 (≈ 27 µM)
1.6 (≈ 3.44 µM) | ≤ 0.1 | 0.2 (≈ 0.431 µM) | 0.2 (≈ 0.431 µM) | CON=C(C)[C@H](NC(=O)c1ccc(C#Cc2ccc(CN3CCOCC3)cc2)cc1)C(=O)NO [Compound 381] | 1.6 (≈ 3.44 µM) | 3.1 (≈ 6.67 µM) | 0.4 (≈ 0.861 µM) | 1.6 (≈ 3.44 µM) | 1.6 (≈ 3.44 µM) | 1.6 (≈ 3.44 µM)
≤ 0.1 | ≤ 0.1 | ≤ 0.1 | ≤ 0.1 | CC(C)([C@H](NC(=O)c1ccc(C#Cc2ccc(CNCc3ccco3)s2)cc1)C(=O)NO)S(C)(=O)=O [Compound 321] | ≤ 0.1 | ≤ 0.1 | ≤ 0.1 | 0.4 (≈ 0.755 µM) | 0.2 (≈ 0.378 µM) | 0.2 (≈ 0.378 µM)
6.3 (≈ 13.6 µM) | ≤ 0.1 | 0.4 (≈ 0.865 µM) | ≤ 0.1 | CC(=O)C(NC(=O)c1ccc(C#Cc2ccc(CNCc3nccs3)cc2)cc1)C(=O)NO (centres unmarked) [Compound 414] | 0.8 (≈ 1.73 µM) | 1.6 (≈ 3.46 µM) | 0.8 (≈ 1.73 µM) | 0.4 (≈ 0.865 µM) | 0.8 (≈ 1.73 µM) | 1.6 (≈ 3.46 µM)
≤ 0.1 | 0.2 (≈ 0.412 µM) | ≤ 0.1 | ≤ 0.1 | Cc1ccc(CNCc2ccc(C#Cc3ccc(C(=O)NC(C(=O)NO)C(C)(C)O)cc3)cc2)cc1 (centres unmarked) [Compound 233] | 0.8 (≈ 1.65 µM) | 0.4 (≈ 0.824 µM) | ≤ 0.1 | 1.6 (≈ 3.3 µM) | 0.4 (≈ 0.824 µM) | 0.8 (≈ 1.65 µM)
0.4 (≈ 0.923 µM) | 1.6 (≈ 3.69 µM) | ≤ 0.1 | 1.6 (≈ 3.69 µM) | CC[C@H](C)[C@H](NC(=O)c1ccc(C#Cc2ccc(CN3CCCC3)cc2)cc1)C(=O)NO [Compound 174] | 3.1 (≈ 7.15 µM) | 6.3 (≈ 14.5 µM) | 0.8 (≈ 1.85 µM) | 6.3 (≈ 14.5 µM) | 6.3 (≈ 14.5 µM) | 6.3 (≈ 14.5 µM)
0.4 (≈ 0.94 µM) | 1.6 (≈ 3.76 µM) | ≤ 0.1 | 1.6 (≈ 3.76 µM) | COCC(C)NCc1ccc(C#Cc2ccc(C(=O)N[C@@H](CO)C(=O)NO)cc2)cc1 (some centres unmarked) [Compound 164] | 6.3 (≈ 14.8 µM) | 12.5 (≈ 29.4 µM) | 1.6 (≈ 3.76 µM) | 25 (≈ 58.8 µM) | 12.5 (≈ 29.4 µM) | 25 (≈ 58.8 µM)
